In article PMC9866191, “Novel 9-Benzylaminoacridine Derivatives as Dual Inhibitors of Phosphodiesterase 5 and Topoisomerase II for the Treatment of Colon Cancer” (Molecules, 2023):

What was measured:
PDE5A = molecular target: T1, PDE5A (Homo sapiens, UniProt O76074); assay: Phosphodiesterase 5 HTRF cGMP assay; format: biochemical; details: for IC50: means ± S.D. (n = 4), read-out: PDE5 IC50; for inhibition at 10 µM: read-out: PDE5 % Inhibition at 10 μM
T1 construct: purchased BPS Bioscience, San Diego, CA, USA
Protocol: All the synthesized acridine derivatives were tested for their in vitro ability to inhibit PDE5A at a screening dose of 10 µM.
The enzyme activities of phosphodiesterase 5 (PDE5) were measured using an HTRF cGMP assay kit (Cisbio, Codolet, France). […] Afterward, the HTRF reagent (cGMP-d2 and anti-cGMP-cryptate) was added for 1 h at 25 °C, and PDE activity was assayed on an HTRF reader (Tecan Infinite F200 Pro).

786-0 = assay: NCI-60 one-dose screen; format: cell-based; details: Homo sapiens; 786-0, Renal Cancer panel; single dose 10^−5 M; read-out: Growth inhibition %
A498 = assay: NCI-60 one-dose screen; format: cell-based; details: Homo sapiens; A498, Renal Cancer panel; single dose 10^−5 M; read-out: Growth inhibition %
BT-549 = assay: NCI-60 one-dose screen; format: cell-based; details: Homo sapiens; BT-549, Breast Cancer panel; single dose 10^−5 M; read-out: Growth inhibition %
EKVX = assay: NCI-60 one-dose screen; format: cell-based; details: Homo sapiens, Non-small cell lung panel, single dose 10^−5 M, read-out: Growth inhibition %
HCT-116 [1] = assay: NCI-60 one-dose screen; format: cell-based; details: Homo sapiens, read-out: Growth inhibition %
HCT-15 = assay: NCI-60 one-dose screen; format: cell-based; details: Homo sapiens; HCT-15, Colon Cancer panel; single dose 10^−5 M; read-out: Growth inhibition %
HL-60(TB) = assay: NCI-60 one-dose screen; format: cell-based; details: Homo sapiens, Leukemia panel, single dose 10^−5 M, read-out: Growth inhibition %
HS 578T = assay: NCI-60 one-dose screen; format: cell-based; details: Homo sapiens, Breast Cancer panel, single dose 10^−5 M, read-out: Growth inhibition %
HT29 = assay: NCI-60 one-dose screen; format: cell-based; details: Homo sapiens, HT-29; HT29, Colon Cancer panel; single dose 10^−5 M; read-out: Growth inhibition %
KM12 = assay: NCI-60 one-dose screen; format: cell-based; details: Homo sapiens; KM12, Colon Cancer panel; single dose 10^−5 M; read-out: Growth inhibition %
M14 = assay: NCI-60 one-dose screen; format: cell-based; details: Homo sapiens; M14, Melanoma panel; single dose 10^−5 M; read-out: Growth inhibition %
MALME-3M = assay: NCI-60 one-dose screen; format: cell-based; details: Homo sapiens, Melanoma panel, single dose 10^−5 M, read-out: Growth inhibition %
MCF7 = assay: NCI-60 one-dose screen; format: cell-based; details: Homo sapiens; MCF7, Breast Cancer panel; single dose 10^−5 M; read-out: Growth inhibition %
MDA-MB-468 = assay: NCI-60 one-dose screen; format: cell-based; details: Homo sapiens; MDA-MB-468, Breast Cancer panel; single dose 10^−5 M; read-out: Growth inhibition %
MOLT-4 = assay: NCI-60 one-dose screen; format: cell-based; details: Homo sapiens; MOLT-4, Leukemia panel; single dose 10^−5 M; read-out: Growth inhibition %
NCI-H322M = assay: NCI-60 one-dose screen; format: cell-based; details: Homo sapiens, Non-small cell lung panel, single dose 10^−5 M, read-out: Growth inhibition %
NCI-H460 = assay: NCI-60 one-dose screen; format: cell-based; details: Homo sapiens; NCI-H460, Non-small cell lung panel; single dose 10^−5 M; read-out: Growth inhibition %
NCI-H522 = assay: NCI-60 one-dose screen; format: cell-based; details: Homo sapiens; NCI-H522, Non-small cell lung panel; single dose 10^−5 M; read-out: Growth inhibition %
PC-3 = assay: NCI-60 one-dose screen; format: cell-based; details: Homo sapiens; PC-3, Prostate Cancer panel; single dose 10^−5 M; read-out: Growth inhibition %
RPMI-8226 = assay: NCI-60 one-dose screen; format: cell-based; details: Homo sapiens; RPMI-8226, Leukemia panel; single dose 10^−5 M; read-out: Growth inhibition %
SF-539 = assay: NCI-60 one-dose screen; format: cell-based; details: Homo sapiens; SF-539, CNS Cancer panel; single dose 10^−5 M; read-out: Growth inhibition %
SK-MEL-28 = assay: NCI-60 one-dose screen; format: cell-based; details: Homo sapiens; SK-MEL-28, Melanoma panel; single dose 10^−5 M; read-out: Growth inhibition %
SR = assay: NCI-60 one-dose screen; format: cell-based; details: Homo sapiens, Leukemia panel, single dose 10^−5 M, read-out: Growth inhibition %
SW-620 = assay: NCI-60 one-dose screen; format: cell-based; details: Homo sapiens; SW-620, Colon Cancer panel; single dose 10^−5 M; read-out: Growth inhibition %
TK-10 = assay: NCI-60 one-dose screen; format: cell-based; details: Homo sapiens; TK-10, Renal Cancer panel; single dose 10^−5 M; read-out: Growth inhibition %
UACC-257 = assay: NCI-60 one-dose screen; format: cell-based; details: Homo sapiens; UACC-257, Melanoma panel; single dose 10^−5 M; read-out: Growth inhibition %
LOX IMVI = assay: NCI-60 one-dose screen; format: cell-based; details: Homo sapiens, Melanoma panel, single dose 10^−5 M, read-out: Growth inhibition %
HCT-116 [2] = assay: MTT cell proliferation assay, HCT-116; details: for % Inhibition at 10 µM: 72 h MTT, means ± SD; for IC50: read-out: IC50 μM, 72 h MTT, means ± SD, three experiments
CCD-966SK = assay: MTT cell proliferation assay, CCD-966SK; details: CCD966SK skin fibroblast, 72 h MTT
Protocol: In the MTT assay, 96-well culture plates were used. A total of 7 × 10^4 cells per well were seeded, and test materials were added to the cells at various concentrations [47, 48]. Human cancer and non-cancer cell lines were purchased commercially from the American Type Culture Collection (ATCC). After 72 h, the cytotoxicity of the compounds and paclitaxel (as a positive control group) was detected using the MTT method (thiazolyl blue tetrazolium bromide, Sigma-M2128). Absorbance values at 570 and 620 nm (OD = OD570–OD620) were measured using an ELISA reader (Anthos Labtec Instruments, Salzburg, Austria).

SMILES	IC50 (PDE5A)	inhibition at 10 µM (PDE5A)	inhibition at 10 µM (786-0)	inhibition at 10 µM (A498)	inhibition at 10 µM (BT-549)	inhibition at 10 µM (EKVX)	inhibition at 10 µM (HCT-116 [1])	inhibition at 10 µM (HCT-15)	inhibition at 10 µM (HL-60(TB))	inhibition at 10 µM (HS 578T)	inhibition at 10 µM (HT29)	inhibition at 10 µM (KM12)	inhibition at 10 µM (M14)	inhibition at 10 µM (MALME-3M)	inhibition at 10 µM (MCF7)	inhibition at 10 µM (MDA-MB-468)	inhibition at 10 µM (MOLT-4)	inhibition at 10 µM (NCI-H322M)	inhibition at 10 µM (NCI-H460)	inhibition at 10 µM (NCI-H522)	further results
COc1ccc2nc3ccccc3c(NCc3ccc(C)cc3)c2c1 [Compound 26, (2-Methoxyacridin-9-yl)-(4-methylbenzyl)-amine]	0.83 ± 0.12 µM	88.1 ± 4.28%	84.2%	102%	48.4%	64.8%	91.4%	88.6%	100%	57.3%	98.8%	62.7%	71.3%	78%	96.6%	119%	99.7%	69.7%	90%	73.6%	inhibition at 10 µM (PC-3): 88.6%; inhibition at 10 µM (RPMI-8226): 146%; inhibition at 10 µM (SF-539): 89.3%; inhibition at 10 µM (SK-MEL-28): 33.6%; inhibition at 10 µM (SR): 113%; inhibition at 10 µM (SW-620): 81.5%; inhibition at 10 µM (TK-10): 53%; inhibition at 10 µM (UACC-257): 108%; inhibition at 10 µM (LOX IMVI): 106%; % Inhibition at 10 µM (HCT-116 [2]): 38.11 ± 1.35%; % Inhibition at 10 µM (CCD-966SK): 46.76 ± 3.21%
Fc1cccc(CNc2c3ccccc3nc3ccccc23)c1 [Compound 9, Acridin-9-yl-(3-fluorobenzyl)-amine]	7.49 ± 2.2 µM	55.9 ± 5.78%	63.5%	113%	22.9%	68%	86.6%	77.1%	53%	36.1%	85.7%	51.4%	61.2%	49.5%	92.1%	99.4%	85.1%	59.8%	87.3%	62.2%	inhibition at 10 µM (PC-3): 51%; inhibition at 10 µM (RPMI-8226): 89.9%; inhibition at 10 µM (SF-539): 73.1%; inhibition at 10 µM (SK-MEL-28): 21.5%; inhibition at 10 µM (SR): 80.9%; inhibition at 10 µM (SW-620): 78%; inhibition at 10 µM (TK-10): 35.9%; inhibition at 10 µM (UACC-257): 41.9%; inhibition at 10 µM (LOX IMVI): 87.7%; % Inhibition at 10 µM (HCT-116 [2]): 57.06 ± 1.36%; IC50 (HCT-116 [2]): 7.3 ± 0.33 µM; % Inhibition at 10 µM (CCD-966SK): 42.74 ± 2.09%
COc1ccc2nc3ccccc3c(NCc3ccc(F)cc3)c2c1 [Compound 28, (4-Fluorobenzyl)-(2-methoxyacridin-9-yl)-amine]	5.31 ± 1.27 µM	64.2 ± 7.47%	93.2%	108%	65%	77.6%	91.1%	95.9%	135%	73.9%	99.8%	71.3%	84.7%	105%	128%	124%	99.5%	77.4%	94.5%	81.8%	inhibition at 10 µM (PC-3): 82.9%; inhibition at 10 µM (RPMI-8226): 143%; inhibition at 10 µM (SF-539): 96.2%; inhibition at 10 µM (SK-MEL-28): 64.7%; inhibition at 10 µM (SR): 101%; inhibition at 10 µM (SW-620): 85.3%; inhibition at 10 µM (TK-10): 62.2%; inhibition at 10 µM (UACC-257): 111%; inhibition at 10 µM (LOX IMVI): 167%; % Inhibition at 10 µM (HCT-116 [2]): 75.53 ± 2.52%; IC50 (HCT-116 [2]): 2.51 ± 0.53 µM; % Inhibition at 10 µM (CCD-966SK): 60.66 ± 2.63%; IC50 (CCD-966SK; read-out: IC50 μM): 4.67 ± 0.07 µM
COc1ccc2nc3ccccc3c(NCc3ccccc3)c2c1 [Compound 25, Benzyl-(2-methoxyacridin-9-yl)-amine]	3.61 ± 1 µM	77.2 ± 3.03%	77.7%	114%	49.7%	73.1%	85.2%	86.9%	91.8%	74.8%	91.5%	63.5%	74%	77.5%	95.7%	110%	92%	70.5%	93.7%	65.4%	inhibition at 10 µM (PC-3): 71.3%; inhibition at 10 µM (RPMI-8226): 131%; inhibition at 10 µM (SF-539): 88.2%; inhibition at 10 µM (SK-MEL-28): 50.3%; inhibition at 10 µM (SR): 95.7%; inhibition at 10 µM (SW-620): 80.5%; inhibition at 10 µM (TK-10): 61.3%; inhibition at 10 µM (UACC-257): 72.9%; inhibition at 10 µM (LOX IMVI): 131%; % Inhibition at 10 µM (HCT-116 [2]): 59.62 ± 2.66%; IC50 (HCT-116 [2]): 7.43 ± 0.77 µM; % Inhibition at 10 µM (CCD-966SK): 44.14 ± 3.80%
